The record followed here is patent US20050143336A1 (priority 2003, published 2005).

For one experiment, the system named is C3H mice. As to the kind of experiment: Survival of mice given p38MAPK or pJNK inhibitor before FUS1-nanoparticles. Format: in vivo. On the procedure:
The amount of FUS1 plasmid DNA delivered was 100 μg. Animals were injected intravenously with FUS1-nanoparticles and animal survival monitored for 25 days.

Another experiment relates to p44/42 MAPK. The conditions noted are these: MRC-9 cells, 10, 30 μM prior to FUS1-nanoparticles. On the procedure:
In vitro experiments. To determine the effect of FUS1-nanoparticles on the activation of signaling molecules associated with inflammation, MRC-9 fibroblast cells were seeded in six-well plates (5×10^5 cells/well) and incubated overnight at 37° C. and 5% CO2. […] Two-three hours after treatment, cells were transfected with FUS1-nanoparticles (2.5 μg DNA) in 0.2% serum medium. Cells were harvested at different time-points (2 h, 4 h, 15 h) after transfection, washed, and cell lysates prepared as previously described (Ramesh et al., 2001a). Untransfected cells treated with PBS served as control in these experiments. Cell lysates were subjected to western blotting analysis and probed with various antibodies as previously described (Ramesh et al., 2001b; Ito et al., 2003). In all the experiments, β-actin was detected using anti-β-actin antibody (Sigma Chemicals, St. Louis, Mo.) as a measure of internal loading control.

[1] abbreviates: inhibitor 15 mg/kg intraperitoneally 24 h and 3 h prior to FUS1-nanoparticles (100 μg DNA) i.v., monitored 25 days.

On to `C[S+]([O-])c1ccc(-c2nc(-c3ccncc3)c(-c3ccc(F)cc3)[nH]2)cc1` (stereo not shown) [SB 203580], for which the survival is 100% in the experiment on C3H mice (setting [1]); “Prolonged survival” in the experiment on C3H mice (two i.p. doses at 24 h and 3 h before complex).

For `N#CC(=C(/N)Sc1ccccc1N)/C(C#N)=C(\N)Sc1ccccc1N` [U0126], the “p44/42 MAPK expression and downstream substrates” value with p44/42 MAPK is on record as “significant inhibition”.

`O=C1c2ccccc2-c2n[nH]c3cccc1c23` [pJNK inhibitor] showed a survival in the experiment on C3H mice (setting [1]) of 33%.
